Counter-ions that a name gives are not always drawn.
What was measured:
[1] = molecular target: recombinant human neuronal constitutive NOS (hncNOS) (Homo sapiens, UniProt P29475); experiment: Human in vitro enzyme data, hncNOS; format: biochemical
[2] = molecular target: T1, rat brain constitutive NOS (rnNOS) (Rattus norvegicus, UniProt P29476); experiment: Citrulline assay for nitric oxide synthase, rnNOS; format: biochemical; settings: partially purified enzyme from rat cerebellum
T1 construct: was prepared from an extract of rat cerebellum; from tissue; host or cells: rat cerebellum
Description: (§1) NOS activity was measured by monitoring the conversion of L-[2,3-^3H]-arginine to L-[2,3- H]-citrulline. Mouse inducible NOS (miNOS) was prepared from an extract of LPS-treated mouse RAW 264.7 cells and rat brain constitutive NOS (rnNOS) was prepared from an extract of rat cerebellum. Both preparations were partially purified by DEAE-Sepharose chromatography. Enzyme (10 μL) was added to 40 μL of 50 mM Tris (pH 7.6) and the reaction initiated by the addition of 50 μL of a solution containing 50 mM Tris (pH 7.6), 2.0 mg/mL bovine serum albumin, 2.0 mM DTT, 4.0 mM CaCl2, 20 μM FAD, 100 &M tetrahydrobiopterin, 2.0 mM NADPH and 60 μM L-arginine containing 0.9 μCi of L-[2,3-^3H]-arginine. For constitutive NOS, calmodulin was included at a final concentration of 40 nM. Following incubation at 37° C. for 15 minutes, the reaction was terminated by addition of 300 μL cold buffer containing 10 mM EGTA, 100 mM HEPES (pH 5.5) and 1.0 mM L-citrulline. The [^3H]-citrulline was separated by chromatography on Dowex 50W X-8 cation exchange resin and radioactivity quantified with a liquid scintillation counter.

[3] = molecular target: recombinant human inducible NOS (hiNOS) (Homo sapiens, UniProt P35228); experiment: Human in vitro enzyme data, hiNOS; format: biochemical
[4] = molecular target: T2, mouse inducible NOS (miNOS) (Mus musculus, UniProt P29477); experiment: Citrulline assay for nitric oxide synthase, miNOS; format: biochemical; settings: partially purified enzyme from LPS-treated RAW 264.7 cells
T2 construct: prepared from an extract of LPS-treated mouse RAW 264.7 cells; endogenous in cells; host or cells: LPS-treated mouse RAW 264.7 cells
Description: as §1

RAW 264.7 cells = experiment: Raw cell nitrite assay; format: cell-based; settings: Mus musculus, RAW264.7, cultured RAW 264.7 cells, LPS-induced
Description: RAW 264.7 cells are plated to confluency on a 96-well tissue culture plate grown overnight (17 h) in the presence of LPS to induce NOS. A row of 3-6 wells were left untreated and served as controls for subtraction of nonspecific background. The media was removed from each well and the cells are washed twice with Kreb-Ringers-Hepes (25 mM, pH 7.4) with 2 mg/ml glucose. The cells are then placed on ice and incubated with […] of buffer containing L-arginine (30 mM) +/− inhibitors for 1 h. The assay is initiated by warming the plate to 37° C. in a water bath for 1 h. Production of nitrite by intracellular iNOS is linear with time. To terminate the cellular assay, the plate of cells is placed on ice and the nitrite-containing buffer removed and analyzed for nitrite using a previously published fluorescent determination for nitrite. T. P. Misko et al, Analytical Biochemistry, 214, 11-16 (1993). All values are the average of triplicate wells and are compared to a background-subtracted induced set of cells (100% value).

[5] = tested on: plasma nitrites induced by endotoxin (LPS); experiment: In vivo low-endotoxin (Low Dose LPS) assay; set-up: species or system rat; settings: rats, LPS i.p., plasma nitrites 5 hours post-treatment
Description: Rats were treated with an intraperitoneal injection of 10 mg/kg of endotoxin (LPS) with or without oral administration of the nitric oxide synthase inhibitors. Plasma nitrites were measured 5 hours post-treatment.

[6] = molecular target: recombinant human endothelial constitutive NOS (hecNOS) (Homo sapiens, UniProt P29474); experiment: Human in vitro enzyme data, hecNOS; format: biochemical

C/C(=N\O)NCCCC[C@H](N)C(=O)O [Example 1, N^6-[1-(Hydroxyimino)ethyl]-L-lysine, Dihydrochloride]
IC50 [1]: 907 µM | IC50 [2]: 1470 µM | IC50 [3]: 154 µM | IC50 [4]: 77 µM | IC50 (RAW 264.7 cells): 28 µM | Inhibition of LPS-induced plasma nitrite ([5]; 0.1 mg/kg/day p.o.): 0% inh. | Inhibition of LPS-induced plasma nitrite ([5]; 1 mg/kg/day p.o.): 54% inh. | Inhibition of LPS-induced plasma nitrite ([5]; 10 mg/kg/day p.o.): 97% inh. | IC50 [6]: 1470 µM
